Residue numbers refer to the chain shown, from its start.
Experiments:
[1] = target: T1, h15-LOX-1 L407A (Homo sapiens, UniProt P16050, L407A); assay: Steady-state substrate kinetics, L407A; assay type: biochemical; settings: error in parentheses, no unit in table (sec^−1)
T1 sequence (P16050 1-662 L407A): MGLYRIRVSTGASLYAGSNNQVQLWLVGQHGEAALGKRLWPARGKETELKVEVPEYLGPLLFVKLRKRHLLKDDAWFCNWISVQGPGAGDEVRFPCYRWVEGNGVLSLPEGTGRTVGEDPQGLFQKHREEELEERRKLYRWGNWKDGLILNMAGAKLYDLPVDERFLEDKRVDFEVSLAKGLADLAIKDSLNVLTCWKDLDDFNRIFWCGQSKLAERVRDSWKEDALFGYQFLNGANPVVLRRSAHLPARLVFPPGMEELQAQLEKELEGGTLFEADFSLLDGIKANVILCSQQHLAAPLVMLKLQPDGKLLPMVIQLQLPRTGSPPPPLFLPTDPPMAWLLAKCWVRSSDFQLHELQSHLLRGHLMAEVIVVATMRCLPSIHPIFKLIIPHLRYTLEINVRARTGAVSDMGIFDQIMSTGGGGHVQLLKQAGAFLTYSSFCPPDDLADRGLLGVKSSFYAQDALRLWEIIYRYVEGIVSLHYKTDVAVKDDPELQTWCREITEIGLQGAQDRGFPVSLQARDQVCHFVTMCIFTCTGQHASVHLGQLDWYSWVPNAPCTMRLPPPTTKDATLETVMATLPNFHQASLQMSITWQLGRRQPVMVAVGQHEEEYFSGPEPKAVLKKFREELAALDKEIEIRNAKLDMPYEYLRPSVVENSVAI

[2] = target: T2, h15-LOX-1 E356Q (Homo sapiens, UniProt P16050, E356Q); assay: Steady-state substrate kinetics, E356Q; assay type: biochemical; settings: error in parentheses, no unit in table (sec^−1)
T2 sequence (P16050 1-662 E356Q): T1 sequence (P16050 1-662 L407A) with E356Q, A407L

kcat [1]: 2.5 (0.2) | kcat [2]: 3.0 (0.1)
Compound: CCCCC/C=C\C/C=C\C/C=C\C/C=C\CCCC(=O)O [AA, arachidonic acid]

Reference: paper PMC5065787 (Bioorganic & medicinal chemistry, 2016)
